# ChEMBL document CHEMBL1275407, “Treatment of scedosporiosis with voriconazole: clinical experience with 107 patients” (2008)
# Legend:
# Type in all cases: functional
# Scedosporium apiospermum [1] = assay: Antifungal activity against Scedosporium apiospermum isolated from compound treated scedosporiosis patient by broth microdilution method
# Lomentospora prolificans [2] = assay: Antifungal activity against Scedosporium prolificans isolated from compound treated scedosporiosis patient by broth microdilution method
# Lomentospora prolificans [3] = assay: Antifungal activity against Scedosporium prolificans isolated from voriconazole treated scedosporiosis patient by broth microdilution method
# Scedosporium apiospermum [4] = assay: Antifungal activity against Scedosporium apiospermum isolated from voriconazole treated scedosporiosis patient by broth microdilution method
MIC50 (Lomentospora prolificans [3]),MIC90 (Lomentospora prolificans [3]),MIC50 (Scedosporium apiospermum [4]),MIC90 (Scedosporium apiospermum [4]),Structure (SMILES),MIC50 (Scedosporium apiospermum [1]),MIC90 (Scedosporium apiospermum [1]),MIC50 (Lomentospora prolificans [2]),MIC90 (Lomentospora prolificans [2])
,,,,C[C@@H](c1ncncc1F)[C@](O)(Cn1cncn1)c1ccc(F)cc1F [VORICONAZOLE],0.25 µg/mL,1 µg/mL,4 µg/mL,8 µg/mL
8 µg/mL,16 µg/mL,4 µg/mL,> 8 µg/mL,C[C@@H]1[C@H](O)[C@@H](C)/C=C/C=C/C=C/C=C/C=C/C=C/C=C/[C@H](O[C@@H]2O[C@H](C)[C@@H](O)[C@H](N)[C@@H]2O)C[C@@H]2O[C@](O)(C[C@@H](O)C[C@@H](O)[C@H](O)CC[C@@H](O)C[C@@H](O)CC(=O)O[C@H]1C)C[C@H](O)[C@H]2C(=O)O [AMPHOTERICIN B],,,,
16 µg/mL,16 µg/mL,0.5 µg/mL,2 µg/mL,CCC(C)n1ncn(-c2ccc(N3CCN(c4ccc(OCC5COC(Cn6cncn6)(c6ccc(Cl)cc6Cl)O5)cc4)CC3)cc2)c1=O (configuration not stated) [ITRACONAZOLE],,,,
